PMC8143291, “Cytotoxicity and Microbicidal Activity of Commonly Used Organic Solvents: A Comparative Study and Application to a Standardized Extract from Vaccinium macrocarpon” (Toxics, 2021)

Legend:
[1] = system: A-375 (malignant melanoma); test: MTT dye-reduction cytotoxicity assay (ISO 10993-5); assay type: cell-based, human; details: solvent alone, n = 3
Text: The cell lines utilized in this study included the human tumor lines A-375 (malignant melanoma) and A-431 (non-melanoma epidermoid squamous skin carcinoma) as well as the models for non-tumorigenic cells—HaCaT (immortalized human keratinocytes) and CCL-1^TM (transformed mouse fibroblasts, NCTC clone 929). The first three cell lines were obtained from CLS Cell Lines Service (GmbH, Eppelheim, Germany). CCL-1^TM was purchased from the American Type Culture Collection (ATCC, Manassas, VA, USA). Cells were maintained in a controlled environment—sterile cell culture flasks in a CO2 incubator Panasonic MCO-18AC (Panasonic Healthcare co., ltd, Oizumi-Machi, Japan) at 37 °C and a humidified atmosphere containing 5% CO2. CCL-1 was cultured in MEM with 10% heat-inactivated horse serum and 2 mM L-glutamine, and the cell culture medium for the rest of the cell lines was DMEM-HG with 4.5 g/L glucose with the addition of 10% heat-inactivated fetal bovine serum and 4 mM L-glutamine. Pen/strep (concentration of penicillin G sodium 10^5 Units/L and of streptomycin sulfate 100 mg/L) was added to both culture media. The cell lines were maintained as an adherent monolayer in a log phase. The cells were sub-cultivated about 1–3 times per week after the monolayer reached 80–90% confluence. The medium was removed from the flask, and the cell monolayer was washed with 3–5 mL PBS. The cells were incubated with 0.05% EDTA in PBS for 8–10 min, followed by the next step where all cell lines were subjected to enzyme cell detachment. HaCaT and CCL-1 monolayers were detached with 1 mL solution of trypsin/EDTA (0.1%/0.05% for HaCaT and 0.25% (w/v)/0.53 mM for CCL-1) and incubated for 2–5 min at 37 °C (for HaCaT) or at room temperature (for CCL-1 cells), whereas Accutase® was used for A-375 and A-431 lines. The incubation lasted until the separation and dispersion of the cells in the monolayer were observed using light microscopy. In the end, all cell lines were resuspended in 10 mL medium and centrifuged for 3 min at 300× g. The cell pellet was resuspended in fresh medium and sub-cultivated at a seeding density of 1.0 × 10^4 cells/cm^2.
The MTT test was performed in order to determine the median inhibitory (IC50) and MTC concentrations of the solvents and PAC according to Annex C, ISO 10993-5 [2, 21]. Briefly, 100 µL of the cell suspension (1 × 10^5 cells/mL) were seeded per well in 96-well plates with a flat bottom. The cells were incubated for 24 h, allowing them to enter the log phase of their growth. On the 24th hour, the cells were treated with the solvents or CystiCran® solutions in concentrations ranging between 0.004% and 2% volume fraction (v/v) and incubated further for 72 h. The incubation periods are following the recommendations of the FDA guide for the use of ISO 10993-1 [1]. At the end of the incubation period, 10 µL of an MTT solution (5 mg/mL) were added to each well, and the plates were kept at 37 °C for 2 hours. Thereafter, the medium was aspirated, and the formed formazan crystals were dissolved in 100 μL/well of 2-propanol supplemented with 5% formic acid. The same solvent was used as a blank. […] The absorption was measured at 540 nm (reference filter at 690 nm) on a microplate reader ELx800 (BioTek Instruments, Inc., Winooski, VT, Winooski, VT, USA).
The IC50 values from the MTT assay were evaluated with a non-linear regression analysis (Curve fit, GraphPad Prizm 6.01 software, GraphPad Software Inc., San Diego, CA, USA) using sigmoidal concentration–response curves. […]

[2] = system: S. Aureus ATCC 29213; test: Dehydrogenase activity (DEHA) MTT test after BMD; assay type: cell-based, Staphylococcus aureus; details: 24 h exposure; % against untreated control; ± SD; n = 3
Protocol: (§1) The cell dehydrogenase (DEHA, redox, metabolic) activity of all samples was measured at the end of the BMD assay, based on reducing the MTT dye to formazan by the membrane located bacterial enzyme NADH: ubiquinone reductase (H^+-translocation). The protocol of Wang et al. was applied after minor modifications. Briefly, each sample was incubated for 120 min at 37 °C with MTT at a final concentration of 0.5 mg/mL in the culture medium. The resulting non-soluble violet formazan crystals were dissolved with an equal volume of 2-propanol supplemented with 5% formic acid. The absorbance was measured at 550 nm against a blank solution containing the respective volumes of MHB and MTT.
The cell viability is presented as a percentage of the untreated control. At least four wells were seeded for every concentration. Three independent assays were performed (n = 3). […] The respiratory activity of the bacterial cultures was calculated as a percentage against the untreated control.

[3] = system: S. Aureus MRSA NBIMCC 8327; test: Dehydrogenase activity (DEHA) MTT test after BMD; assay type: cell-based, Staphylococcus aureus; details: 24 h exposure; % against untreated control; ± SD; n = 3
Protocol: as §1
(§2) The IC50 values from the MTT assay were evaluated with a non-linear regression analysis (Curve fit, GraphPad Prizm 6.01 software, GraphPad Software Inc., San Diego, CA, USA) using sigmoidal concentration–response curves. The cell viability is presented as a percentage of the untreated control. […] The maximum tolerated concentration (MTC) for the cell lines was determined from three independent assays according to ISO 10993-5 as the maximum concentration at which at least 70% of the cells were viable (nonlin fit, range, GraphPad Prizm 6.01 software) GraphPad Software Inc., San Diego, CA, USA). […] The respiratory activity of the bacterial cultures was calculated as a percentage against the untreated control.

[4] = system: Y. enterocolitica IP 864 O: 3; test: Dehydrogenase activity (DEHA) MTT test after BMD; assay type: cell-based, Yersinia enterocolitica; details: 24 h exposure; % against untreated control; ± SD; n = 3
Protocol: as §1
The IC50 values from the MTT assay were evaluated with a non-linear regression analysis (Curve fit, GraphPad Prizm 6.01 software, GraphPad Software Inc., San Diego, CA, USA) using sigmoidal concentration–response curves. The cell viability is presented as a percentage of the untreated control. At least four wells were seeded for every concentration. Three independent assays were performed (n = 3). The maximum tolerated concentration (MTC) for the cell lines was determined from three independent assays according to ISO 10993-5 as the maximum concentration at which at least 70% of the cells were viable (nonlin fit, range, GraphPad Prizm 6.01 software) GraphPad Software Inc., San Diego, CA, USA). To compare the MTC values of the solvents for each cell line, the ordinary One-way ANOVA statistical analysis based on Tukey’s multiple comparisons test with a single pooled variance (GraphPad Prizm 6.01 software) GraphPad Software Inc., San Diego, CA, USA) was utilized, and p ≤ 0.05 was set as a significance level. The respiratory activity of the bacterial cultures was calculated as a percentage against the untreated control.

[5] = system: E. coli ATCC 35218; test: Dehydrogenase activity (DEHA) MTT test after BMD; assay type: cell-based, Escherichia coli; details: in MHB; 24 h exposure; % against untreated control; ± SD; n = 3
Protocol: as §1, §2

SMILES	MTC (maximum tolerated concentration) ([1]; 72 h, at least 70% of cells viable)	IC50 (CI 95%) ([1]; 72 h incubation)	DEHA (dehydrogenase activity) [2]	DEHA (dehydrogenase activity) [3]	DEHA (dehydrogenase activity) [4]	DEHA (dehydrogenase activity) [5]
CCO [EtOH, ethanol]	> 2 % (v/v)	> 2 % (v/v)	–	–	–	–
C[S+](C)[O-] [DMSO, dimethyl sulfoxide]	–	–	12.29 ± 0.04%	13.01 ± 0.05%	19.13 ± 0.17%	13.02%
